The source of these data is US11492636B2, “Modified bialaphos resistance acetyltransferase compositions and uses thereof” (Whitehead Institute for Biomedical Research, priority 2016, dated 2022).

The assay addresses T1, BAR (Streptomyces hygroscopicus, UniProt P16426).
T1 construct: made in house; host or cells: E. coli BL21(DE3)
In words: In vitro enzyme kinetic assays of recombinant BAR against native and non-native substrates. It is filed as biochemical. Conditions: for in vitro substrate of BAR (N-acetyltransferase activity): recombinant BAR, up to 8.4 mM substrate; for KM values of BAR against aminoadipate and tryptophan (estimated): substrates reached solubility limit before saturation. The text has this: The BAR coding sequence was amplified by PCR (KaPa HiFi HotStart polymerase; KaPa Biosystems) from genomic DNA extracted from homozygous plants of the SAIL line SAIL_1165_B02 using primers SAIL_BAR_F_pPROEX and SAIL_BAR_R_pPROEX (see Table 3) and then cloned into pProEX Hta (Invitrogen) via EcoRI and HindIII resulting in a 6×His-BAR fusion construct. 6×His-BAR was expressed in E. coli BL21(DE3) grown in Luria-Bertani medium. At an optical density at 600 nm of 0.6, protein expression was induced with 1.0 mM isopropylthio-β-galactoside (IPTG), and cells were grown at 37° C. for 2.5 h. Cells from a 200 mL culture were harvested by centrifugation and resuspended in 8 mL binding buffer (20 mM HEPES-KOH pH 7.4, 0.5 M NaCl, 10% (v/v) glycerol, 20 mM imidazole) supplemented with 3 U mL^−1 DNase (Promega), 2 mM MgCl2 and 1/10 of a tablet containing a protease inhibitor cocktail (Complete; Roche Applied Science). Cell lysis was performed by use of a high-pressure cell breaker (Cell Disruption System; Constant Systems) at a pressure of 150 MPa. All the following steps were carried out at 4° C. The lysate was centrifuged (16,000 g, 20 min) and a 50% (v/v) slurry of Ni^2+-ion charged agarose beads (Ni Sepharose 6 Fast Flow; GE Healthcare) in binding buffer was added to the supernatant (0.25 mL 50% slurry per mL of supernatant). The mix was incubated for 1 h with slight shaking and then loaded on a Poly-Prep® chromatography column (0.8×4 cm; Bio-Rad). The beads were washed with 10 mL of binding buffer and 3 mL of wash buffer (20 mM HEPES-KOH pH 7.4, 0.5 M NaCl, 10% (v/v) glycerol, 40 mM imidazole) by gravity flow before elution with 3 mL of elution buffer (20 mM HEPES-KOH pH 7.4, 0.5 M NaCl, 10% (v/v) glycerol, 500 mM imidazole). The buffer was exchanged with storage buffer (20 mM HEPES-KOH pH 7.4, 0.5 M NaCl, 10% (v/v) glycerol, 1 mM dithiothreitol) using an ultra-centrifugal filter (MWCO 10,000; Vivaspin 6, Sartorius Stedim Biotech). The purity of the protein preparation was assessed by SDS-PAGE and the concentration was determined by using a NanoDrop 2000 UV-VIS spectrometer (Thermo Scientific).
Enzyme assays were carried out in 10 mM HEPES-KOH (pH 7.4), 20 mM MgCl2, and 2 mM acetyl-CoA (Sigma-Aldrich; final volume 25 μl). Before determining the kinetics of BAR with different substrates, time-dependent activity of the purified protein was tested at substrate concentrations of 200 μM L-phosphinothricin (glufosinate ammonium, considered as a 1:1 mixture of L- and D-enantiomers; Sigma-Aldrich) or 400 μM (L-aminoadipate and L-tryptophan; Sigma-Aldrich). Reactions were initiated by the addition of purified BAR at 0.03 μM (assays with L-phosphinothricin) or 20 μM (assays with aminoadipate or tryptophan) and incubated at 25° C. for the indicated times (FIGS. 8A-8D). Reactions were stopped by the addition of three volumes of methanol supplemented with 0.5% (v/v) formic acid. Likewise, substrate concentration-dependence was determined by incubating assays for 7.5 min (assays with L-phosphinothricin) or 2 h (assays with aminoadipate or tryptophan; FIG. 3). Control assays (FIG. 3B) were performed with aminoadipate and tryptophan at 8.4 mM, but in the absence of BAR. In addition, D-tryptophan (Sigma-Aldrich) was tested as potential substrate at 8.4 mM (FIG. 3B).
In vitro assays with aminoadipate and tryptophan as substrate were analyzed by LC-MS as described above. In vitro assays with L-phosphinothricin were analyzed by LC-MS as described above, but using a normal-phase chromatography system as follows: an 150 mm amide column (ACQUITY UPLC™ BEH amide, 1.7 μm, 2.1×150 mm, Waters) was developed using LC-MS solvents (Chemie Brunschwig) with a gradient (flow rate of 0.4 mL min^−1) of solvent B (acetonitrile with 0.1% (v/v) formic acid) in solvent A (water with 0.1% (v/v) formic acid) as follows (all (v/v)): 95% for 0.5 min, 95% to 30% in 12 min, 30% for 2 min, 30% to 95% in 1 min and 95% for 5 min. […]

SMILES strings stand for the structures. “And” between values parts separate entries of the source, which are not always exact repeats. Identical values can stand only once.

T1 sequence (P16426 whole entry): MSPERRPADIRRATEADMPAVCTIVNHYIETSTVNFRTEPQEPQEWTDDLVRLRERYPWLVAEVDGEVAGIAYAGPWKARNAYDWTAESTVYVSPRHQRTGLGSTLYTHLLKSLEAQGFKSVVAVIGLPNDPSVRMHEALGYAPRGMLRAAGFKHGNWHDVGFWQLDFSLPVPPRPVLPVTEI

As to `NC(CCCC(=O)O)C(=O)O` [aminoadipate, L-aminoadipate], the “in vitro substrate of BAR (N-acetyltransferase activity)” value is recorded as “in vitro substrates of BAR”; the “KM values of BAR against aminoadipate and tryptophan (estimated)” value is recorded as “at least in the millimolar range”. For the same compound, where the note is “in vitro”, the “catalytic activity of BAR toward aminoadipate compared with tryptophan” value was “relatively higher catalytic activity”.

Turning to `CP(=O)(O)CC[C@H](N)C(=O)O` [phosphinothricin, reference compound], for the setting “N-acetylation by recombinant BAR, Michaelis-Menten kinetics, read-out: apparent KM”, the Km is ~39 µM and 39 µM.

On to `N[C@@H](Cc1c[nH]c2ccccc12)C(=O)O` [tryptophan, L-tryptophan], for which the “in vitro substrate of BAR (N-acetyltransferase activity)” value was “in vitro substrates of BAR”; the “KM values of BAR against aminoadipate and tryptophan (estimated)” value was “at least in the millimolar range”.

Usually Km stands for the concentration of substrate that gives half-maximal velocity.
